The first test concerns MIA-PACA2 pancreatic cancer cell lines. Nature of the test: Cell proliferation assay, alternate assay conditions (DAPI fluorescence). In kind it is cell-based. To be noted: Homo sapiens, MIA PaCa-2; * = tested at 10 μM, alternate conditions, MIA-PACA2. As to the method:
Cell lines: Tumor-derived pancreatic cancer cell lines MIA-PACA2 were purchased from ATCC and grown in complete DMEM-High Glucose medium supplemented with penicillin (100 U/mL), streptomycin (100 μg/mL), and 10% heat-inactivated FBS at 37° C. in a humidified incubator with 5% CO2.
Method: Cells are plated at 4000 cells/well density in 96-wells plate. The next day tested small molecules are added to the cells in the final concentration of 10 μM in the presence of 0.3% DMSO and 10% FBS. After small molecules addition, cells are incubated for 4 days at 37° C. in a humidified incubator with 5% CO2. For IC50 value determination, serial dilutions of compounds were added to cells under the same conditions.
Assay: At the end of the incubation period, cell cultures are fixed with a 50-50 mixture (v/v) acetone-methanol for 10 minutes at −20° C., followed by rehydration in PBS for 10 minutes at room temperature. After rehydration, cells are stained with DAPI (1 μg/ml) in PBS for 10 minutes at room temperature, followed by 3 washes with PBS. After staining, DAPI fluorescence is recorded (358 nm excitation/461 nm emission) with the 96-well plate reader Molecular Devices Spectramax M3; degree of small mole-cule-dependent proliferation inhibition is calculated from raw data assuming No Serum cells value as 100%.
Consider `CCOCCOc1nc(-c2nccn2C)nc2sc(-c3ccccc3)c(-c3ccccc3)c12` [drawing 1874], for which the inhibition at 10 µM was 76 to 100%.

Take `Cn1cnc(-c2nc(O)c3c(-c4ccccc4)c(-c4ccncc4)sc3n2)c1` [drawing 1830]: the inhibition at 10 µM lay in the range of 76 to 100%.

Regarding `CC(O)CNc1nc(-c2nccn2C)nc2sc(-c3ccccc3)c(-c3ccccc3)c12` (centres unmarked) [drawing 1871], the inhibition at 10 µM fell in the range of 76 to 100%.

`COCC(C)Nc1nc(-c2ccccn2)nc(C(=O)NCCCc2c[nH]cn2)c1Oc1ccccc1` (centres unmarked) [drawing 1852] returned an inhibition at 10 µM of 76 to 100%.

`COc1nc(-c2ccccn2)nc(Oc2cccc(C(F)(F)F)c2)c1OC` [drawing 1854] registered an inhibition at 10 µM of 76 to 100%.

As for `COCCNc1nc(-c2nccn2C)nc2sc(C3CCOCC3)c(-c3ccccc3)c12` [drawing 1892], the inhibition at 10 µM was in the range of 76 to 100%.

In the case of `Oc1nc(-c2ccccn2)nc2c(CC3CNC3)csc12` [drawing 1821], the inhibition at 10 µM was in the range of 25 to 50%.

`Cn1ccnc1-c1nc(O)c2scc(-c3ccc(C(C)(C)C)cc3)c2n1` [drawing 1921] yielded an inhibition at 10 µM of 76 to 100%.

Regarding `COc1ccc(-c2csc3c(O)nc(-c4nccn4C)nc23)cn1` [drawing 1915], the inhibition at 10 µM is 76 to 100%.

Turning to `Cc1ccc(-c2csc3c(O)nc(-c4ccccn4)nc23)cc1` [drawing 1862], the inhibition at 10 µM was in the range of 76 to 100%.

For the compound `Oc1nc(-c2ccccn2)nc2cc(-c3ccccc3)sc12` [drawing 1864], the inhibition at 10 µM is 76 to 100%.

Compound `Cc1c(-c2csc3c(O)nc(-c4ccccn4)nc23)cnn1C` [drawing 1802] returned an inhibition at 10 µM of 76 to 100%.

`COc1ccc(CCC(=O)Nc2nc(-c3ccccn3)nc3sccc23)cn1` [drawing 1805] had an inhibition at 10 µM of 76 to 100%.

With `Oc1nc(-c2ccccn2)nc2c(-c3ccccc3)c(-c3ccncc3)sc12` [drawing 1850], the inhibition at 10 µM was in the range of 76 to 100%.

Consider `CC(C)OCCNc1nc(-c2nccn2C)nc2sc(-c3ccccc3)c(-c3ccccc3)c12` [drawing 1869], for which the inhibition at 10 µM fell in the range of 76 to 100%.

On to `Nc1nc(O)c2sc(-c3cccc(C(=O)NCc4cccc(O)n4)c3)cc2n1` [drawing 1848], for which the inhibition at 10 µM is 1 to 25%.

Compound `Oc1nc(-c2ccccn2)nc2cc(-c3ccccc3Cl)sc12` [drawing 1858] showed an inhibition at 10 µM of 76 to 100%.

Turning to `COc1cnc(CNC(=O)c2c(C)sc3c(O)nc(-c4ccccn4)nc23)[nH]c1=O` [drawing 1825], the inhibition at 10 µM was 0%.

`Cn1ccnc1-c1nc(O)c2scc(-c3ccc(F)cc3F)c2n1` [drawing 1918]: the inhibition at 10 µM was 76 to 100%.

As to `COCCNc1nc(-c2nccn2C)nc2sc(-c3cccc(OC)c3)c(-c3ccccc3)c12` [drawing 1888], the inhibition at 10 µM was in the range of 76 to 100%.

Take `COCCNc1nc(-c2ccncn2)nc2sc(-c3ccccc3)c(-c3ccccc3)c12` [drawing 1876]: the inhibition at 10 µM lay within 51 to 75%.

In turn, `Oc1nc(-c2ccccn2)nc2c(Br)c(-c3ccccc3)sc12` [drawing 1855] registered an inhibition at 10 µM of 76 to 100%.

Compound `COCCNc1nc(-c2nccn2C)nc2sc(-c3ccccc3Cl)c(-c3ccccc3)c12` [drawing 1883] returned an inhibition at 10 µM of 76 to 100%.

The compound `Cn1cnc(-c2nc(O)c3sc(-c4ccncc4)c(-c4ccccc4)c3n2)c1` [drawing 1851] registered an inhibition at 10 µM of 76 to 100%.

`COc1ccc(-c2c(-c3ccccc3)sc3c(O)nc(-c4nccn4C)nc23)cn1` [drawing 1895]: the inhibition at 10 µM was in the range of 76 to 100%.

`Oc1nc(-c2ccccn2)nc2cc(-c3cccc(Br)c3)sc12` [drawing 1866] showed an inhibition at 10 µM of 76 to 100%.

`Cc1sc2c(O)nc(-c3nccn3C)nc2c1-c1cccc(C(F)(F)F)c1` [drawing 1901] had an inhibition at 10 µM of 76 to 100%.

The compound `Oc1nc(-c2ccccn2)nc2c(C3CCCCC3)csc12` [drawing 1811] returned an inhibition at 10 µM of 76 to 100%.

Consider `CC(C)c1nn(C)cc1-c1csc2c(O)nc(-c3ccccn3)nc12` [drawing 1797], for which the inhibition at 10 µM lay within 76 to 100%.

Still in this test, the particulars now being: Homo sapiens, MIA PaCa-2; MIA-PACA2, same assay as the % inhibition (alternate conditions).
As for `COCCNc1nc(-c2nccn2C)nc2sc(-c3ccccc3Cl)c(-c3ccccc3)c12` [drawing 1883], the half-maximal inhibitory concentration (IC50) lay in the range of 501 to 1000 nM.

As for `COc1ccc(-c2c(-c3ccccc3)sc3c(O)nc(-c4nccn4C)nc23)cn1` [drawing 1895], the IC50 fell in the range of 501 to 1000 nM.

Consider `Cc1sc2c(O)nc(-c3nccn3C)nc2c1-c1cccc(C(F)(F)F)c1` [drawing 1901], for which the IC50 fell in the range of 100 to 500 nM.

These data come from US10940139B2, “Compounds that interact with the Ras superfamily for the treatment of cancers, inflammatory diseases, rasopathies, and fibrotic disease” (Shy Therapeutics LLC, priority 2017, dated 2021).
